Laboratory results as given in US10259807B2, “1-(piperazin-1-yl)-2-([1,2,4]triazol-1-yl)-ethanone derivatives” (Idorsia Pharmaceuticals Ltd., priority 2013, dated 2019).
pIC50: −log10 of the molar value.

Legend:
human CXCR3A = biological target: T1, human CXCR3A (Homo sapiens, UniProt P49682); assay: FLIPR assay (CXCL10-induced calcium signal in CHO-K1 cells); format: cell-based; conditions: CHO-K1 cells expressing human CXCR3A coupled to Galpha(16); CXCL10 agonist 20 nM; mean values
T1 construct: expressed in transfected cells; host or cells: CHO-K1
T1 sequence (P49682 1-368): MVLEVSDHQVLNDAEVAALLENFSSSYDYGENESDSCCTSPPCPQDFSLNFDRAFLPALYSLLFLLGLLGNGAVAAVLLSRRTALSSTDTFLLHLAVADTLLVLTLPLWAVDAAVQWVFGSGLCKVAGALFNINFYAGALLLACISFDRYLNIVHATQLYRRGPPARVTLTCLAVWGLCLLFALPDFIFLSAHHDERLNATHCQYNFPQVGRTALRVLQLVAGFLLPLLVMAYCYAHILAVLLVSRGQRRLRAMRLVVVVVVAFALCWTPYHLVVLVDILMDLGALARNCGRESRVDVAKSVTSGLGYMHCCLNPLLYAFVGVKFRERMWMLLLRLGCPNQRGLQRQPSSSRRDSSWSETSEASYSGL
Protocol: A) FLIPR assay: The bioactivity of compounds is tested in a fluorometric imaging plate reader (FLIPR: Molecular Devices) using engineered CHO-K1 cells expressing the human CXCR3A (GenBank: AY242128) coupled to a G protein (Galpha(16)). Cells are plated the day prior to bioassay in F12 medium supplemented with 10% FBS and G418 and hygromycin antibiotics to maintain recombinant selection. […] Cells are washed free of excess dye and 60 microliter of wash buffer is added. Stock solutions of test compounds are made up at a concentration of 10 mM in DMSO, and serially diluted in dilution buffer to concentrations required for inhibition dose response curves. After a 10 minute incubation period at 37° C., 10 microliters of each compound dilution are transferred from a compound plate to the plate containing the recombinant cells in the FLIPR instrument according to the manufacturer's instructions. Following basal readings, 10 microliter CXCL10 agonist at a concentration of 20 nM (from Peprotech) is added, again using the FLIPR instrument. Changes in fluorescence are monitored before and after addition of the test compounds. Emission peak values above base level after CXCL10 addition are exported after base line subtraction. The program XLfit is used to fit the data to a single site dose response curve and to calculate IC50 values. The calculated IC50 values may fluctuate depending on the daily assay performance. Fluctuations of this kind are known to those skilled in the art.

hERG K channel = biological target: T2, hERG K channel (Homo sapiens, UniProt Q12809); assay: hERG Q-Patch assay; format: cell-based; conditions: CHO cells expressing hERG, K+ tail current 3 min after application, mean of two or three experiments
T2 construct: host or cells: CHO
T2 sequence (Q12809 whole entry): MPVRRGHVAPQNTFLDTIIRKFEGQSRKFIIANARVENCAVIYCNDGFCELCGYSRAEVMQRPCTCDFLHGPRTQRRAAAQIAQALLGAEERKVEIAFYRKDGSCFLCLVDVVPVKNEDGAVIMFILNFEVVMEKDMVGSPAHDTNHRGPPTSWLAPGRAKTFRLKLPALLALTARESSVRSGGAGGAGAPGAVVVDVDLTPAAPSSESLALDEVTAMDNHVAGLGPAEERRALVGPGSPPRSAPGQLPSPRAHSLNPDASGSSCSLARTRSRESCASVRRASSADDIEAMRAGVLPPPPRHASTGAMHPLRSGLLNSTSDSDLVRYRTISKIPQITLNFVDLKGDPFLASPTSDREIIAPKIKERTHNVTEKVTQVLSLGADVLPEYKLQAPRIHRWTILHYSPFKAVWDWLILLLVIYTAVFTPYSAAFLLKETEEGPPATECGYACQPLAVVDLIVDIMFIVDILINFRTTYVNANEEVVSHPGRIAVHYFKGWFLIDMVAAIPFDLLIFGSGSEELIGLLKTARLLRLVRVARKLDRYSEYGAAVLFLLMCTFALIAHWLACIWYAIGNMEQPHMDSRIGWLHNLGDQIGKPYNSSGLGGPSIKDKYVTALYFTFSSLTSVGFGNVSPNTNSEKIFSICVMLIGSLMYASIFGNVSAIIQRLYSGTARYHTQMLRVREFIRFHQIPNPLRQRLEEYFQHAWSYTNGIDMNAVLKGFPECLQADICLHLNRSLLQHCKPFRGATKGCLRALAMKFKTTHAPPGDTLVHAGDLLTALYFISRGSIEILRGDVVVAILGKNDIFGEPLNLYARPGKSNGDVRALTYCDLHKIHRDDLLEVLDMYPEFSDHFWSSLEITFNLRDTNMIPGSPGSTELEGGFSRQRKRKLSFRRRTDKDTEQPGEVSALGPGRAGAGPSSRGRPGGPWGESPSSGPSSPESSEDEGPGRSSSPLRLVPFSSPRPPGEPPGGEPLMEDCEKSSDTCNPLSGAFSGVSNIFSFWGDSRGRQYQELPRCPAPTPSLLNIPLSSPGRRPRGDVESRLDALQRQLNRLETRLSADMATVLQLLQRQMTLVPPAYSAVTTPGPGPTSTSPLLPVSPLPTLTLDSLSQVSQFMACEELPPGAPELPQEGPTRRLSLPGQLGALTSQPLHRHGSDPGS
Protocol: B) hERG Q-Patch assay: Compounds are evaluated for block of the hERG K channel using CHO cells stably expressing the hERG gene (accession number U04270, bSys, Witterswil. Switzerland) and the Patch robotic platform (Sophion, Ballerup, Denmark) in single-cell mode at room temperature. […] When the cells are ˜80% confluent (every 2-3 days), they are either split for further culture or used for electrophysiology. […] Cells are kept in suspension medium at 32-35° C. in the QPatch robot until use, at which time aliquots are transferred to the extracellular solution (in mM: NaCl 150; KCl 4; CaCl2 1.2; MgCl2 1; HEPES 10; pH 7.4 with NaOH) containing 0.3% v/v DMSO and applied to the test plates. K^+ currents are measured with the patch-voltage-clamp technique in the whole-cell configuration with the internal solution (in […]: KCl, 140; NaCl, 10; MgCl2, 1; HEPES, 10; EGTA, 5; pH=7.2 with KOH). […] K^+tail currents are produced from a holding voltage of −80 mV by a 500-ms depolarization to +20 mV followed by a 500-ms repolarization to −40 mV; tail current amplitudes are measured at the end of the repolarization to −40 mV. The pulse pattern is repeated every 10 sec during the experiment, baseline K^+ current is measured after 3 min in extracellular solution, test-solution containing compound is then applied, and K^+ current in presence of compound is measured 3 minutes after application to the cells.

[1] = Human liver microsome assay (metabolic stability); format: in vitro ADME; conditions: human liver microsomes 0.5 mg/mL, compound 1 μM, 37° C., pH 7.4, NADPH-regenerating system
Protocol: Incubation with human liver microsomes was performed to assess metabolic stability at a single compound concentration of 1 μM. A 1 μL-aliquot of the compounds stock solutions in DMSO were added to 899 μL of 100 mM phosphate buffer (pH 7.4) containing the liver microsomes at a concentration of 0.5 mg/mL and the mixture was incubated at 37° C. in an Eppendorf thermomixer at 450 rpm. The reaction was initiated by addition of 100 μL of NADPH-regenerating system containing the glucose-6-phosphate dehydrogenase and at the pre-defined time points, 0, 1.5, 2.5, 5, 10, and 15 min, 100 μL of the incubation was transferred in 100 μL of ice-cold methanol to stop the reaction. Samples were centrifuged at 3220 g for 20 min at 4° C. and the supernatants were submitted to LC/MS-MS analysis.
Calculation of intrinsic clearance CLint:
Natural logarithm of remaining amount of compound was plotted as function of time and the slope of the line determined.
Elimination rate constant (k)=−slope
V=volume of incubation/amount of protein

SMILES | pIC50 (human CXCR3A) | microsomal CLint at 1 µM [1] [µL/min/mg] | % block (hERG K channel; concentration 300 nM) [%] | % block (hERG K channel; concentration 3000 nM) [%]
CCOc1ccc(-c2nc(C(F)(F)F)sc2N2CCN(C(=O)Cn3nc(C)nc3C)[C@H](C)C2)cn1 [Example 15, 2-(3,5-Dimethyl-[1,2,4]triazol-1-yl)-1-{(R)-4-[4-(6-ethoxy-pyridin-3-yl)-2-trifluoromethyl-thiazol-5-yl]-2-methyl-piperazin-1-yl}-ethanone] | 8.04 | 66 | 1 | 13
Cc1nc(C)n(CC(=O)N2CCN(c3sc(C(F)(F)F)nc3-c3cnc(OC(C)C)nc3)C[C@H]2C)n1 [Example 27, 2-(3,5-Dimethyl-[1,2,4]triazol-1-yl)-1-{(R)-4-[4-(2-isopropoxy-pyrimidin-5-yl)-2-trifluoromethyl-thiazol-5-yl]-2-methyl-piperazin-1-yl}-ethanone] | 8.46 | 13 | 2 | 6
Cc1nc(C)n(CC(=O)N2CCN(c3sc(C(F)(F)F)nc3-c3cnc(N4CCCC4)nc3)C[C@H]2C)n1 [Example 36, 2-(3,5-Dimethyl-[1,2,4]triazol-1-yl)-1-{(R)-2-methyl-4-[4-(2-pyrrolidin-1-yl-pyrimidin-5-yl)-2-trifluoromethyl-thiazol-5-yl]-piperazin-1-yl}-ethanone] | 8.80 | 338 | 7 | 15
Cc1nc(C)n(CC(=O)N2CCN(c3sc(C(F)(F)F)nc3-c3cnc(OC4CCC4)nc3)C[C@H]2C)n1 [Example 38, 1-{(R)-4-[4-(2-Cyclobutoxy-pyrimidin-5-yl)-2-trifluoromethyl-thiazol-5-yl]-2-methyl-piperazin-1-yl}-2-(3,5-dimethyl-[1,2,4]triazol-1-yl)-ethanone] | 8.64 | 51 | 5 | 11
Cc1nc(CO)n(CC(=O)N2CCN(c3sc(C(F)(F)F)nc3-c3cnc(C(F)(F)F)nc3)C[C@H]2C)n1 [Example 45, 2-(5-Hydroxymethyl-3-methyl-[1,2,4]triazol-1-yl)-1-{(R)-2-methyl-4-[2-trifluoromethyl-4-(2-trifluoromethyl-pyrimidin-5-yl)-thiazol-5-yl]-piperazin-1-yl}-ethanone] | 7.82 | 14 | 0 | 1
Cc1nc(C(C)(C)O)nn1CC(=O)N1CCN(c2sc(C(F)(F)F)nc2-c2cnc(C(F)(F)F)nc2)C[C@H]1C [Example 48, 2-[3-(1-Hydroxy-1-methyl-ethyl)-5-methyl-[1,2,4]triazol-1-yl]-1-{(R)-2-methyl-4-[2-trifluoromethyl-4-(2-trifluoromethyl-pyrimidin-5-yl)-thiazol-5-yl]-piperazin-1-yl}-ethanone] | 8.33 | – | 1 | 2
CC[C@@H]1CN(c2sc(C(F)(F)F)nc2-c2cnc(C(F)(F)F)nc2)CCN1C(=O)Cn1nc(C)nc1C [Example 51, 2-(3,5-Dimethyl-[1,2,4]triazol-1-yl)-1-{(R)-2-ethyl-4-[2-trifluoromethyl-4-(2-trifluoromethyl-pyrimidin-5-yl)-thiazol-5-yl]-piperazin-1-yl}-ethanone] | 9.22 | 1 | 6 | 18

Second part, led by results:

pIC50 (human CXCR3A) | microsomal CLint at 1 µM [1] [µL/min/mg] | SMILES | % block (hERG K channel; concentration 300 nM) [%] | % block (hERG K channel; concentration 3000 nM) [%]
8.51 | 60 | CCOc1ncc(-c2nc(C(F)(F)F)sc2N2CCN(C(=O)Cn3nc(CC)nc3C)[C@H](C)C2)cn1 (single isomer, unassigned) [Example 18] | 3 | 13
8.03 | 7 | Cc1nc(C)n(CC(=O)N2CCN(c3sc(C(F)(F)F)nc3-c3ccc(Cl)cc3)C[C@H]2C)n1 [Example 7, 1-{(R)-4-[4-(4-Chloro-phenyl)-2-trifluoromethyl-thiazol-5-yl]-2-methyl-piperazin-1-yl}-2-(3,5-dimethyl-[1,2,4]triazol-1-yl)-ethanone] | 34 | 88
8.24 | 8 | CCOc1ncc(-c2nc(C(F)(F)F)sc2N2CCN(C(=O)Cn3nc(C)nc3C)[C@H](C)C2)cn1 [Example 20, 2-(3,5-Dimethyl-[1,2,4]triazol-1-yl)-1-{(R)-4-[4-(2-ethoxy-pyrimidin-5-yl)-2-trifluoromethyl-thiazol-5-yl]-2-methyl-piperazin-1-yl}-ethanone] | 9 | 20
8.54 | 78 | CCCc1ncc(-c2nc(C(F)(F)F)sc2N2CCN(C(=O)Cn3nc(C)nc3C)[C@H](C)C2)cn1 [Example 22, 2-(3,5-Dimethyl-[1,2,4]triazol-1-yl)-1-{(R)-2-methyl-4-[4-(2-propyl-pyrimidin-5-yl)-2-trifluoromethyl-thiazol-5-yl]-piperazin-1-yl}-ethanone] | 1 | 7
8.54 | 7 | Cc1nc(C)n(CC(=O)N2CCN(c3sc(C(F)(F)F)nc3-c3cnc(C4CC4)nc3)C[C@H]2C)n1 [Example 33, 1-{(R)-4-[4-(2-Cyclopropyl-pyrimidin-5-yl)-2-trifluoromethyl-thiazol-5-yl]-2-methyl-piperazin-1-yl}-2-(3,5-dimethyl-[1,2,4]triazol-1-yl)-ethanone] | 4 | 17
8.44 | 4 | Cc1nc(C)n(CC(=O)N2CCN(c3sc(C(F)(F)F)nc3-c3ccc(C(F)(F)F)nc3)C[C@H]2C)n1 [Example 49, 2-(3,5-Dimethyl-[1,2,4]triazol-1-yl)-1-{(R)-2-methyl-4-[2-trifluoromethyl-4-(6-trifluoromethyl-pyridin-3-yl)-thiazol-5-yl]-piperazin-1-yl}-ethanone] | – | –
– | 11 | Cc1nc(C)n(CC(=O)N2CCN(c3sc(C(F)(F)F)nc3-c3cnc(C(F)(F)F)nc3)C[C@@H]2C)n1 [Example 50, 2-(3,5-Dimethyl-[1,2,4]triazol-1-yl)-1-{(S)-2-methyl-4-[2-trifluoromethyl-4-(2-trifluoromethyl-pyrimidin-5-yl)-thiazol-5-yl]-piperazin-1-yl}-ethanone] | – | –
8.35 | – | Cc1nc(C)n(CC(=O)N2CCN(c3sc(C(F)(F)F)nc3-c3cnc(C(C)(F)F)nc3)C[C@H]2C)n1 [Example 52, 1-((R)-4-{4-[2-(1,1-Difluoro-ethyl)-pyrimidin-5-yl]-2-trifluoromethyl-thiazol-5-yl}-2-methyl-piperazin-1-yl)-2-(3,5-dimethyl-[1,2,4]triazol-1-yl)-ethanone] | 2 | 6
